Assay results: publication PMC11253567, “Drug repurposing of pyrazolotriazine derivatives as potential anti-SARS-CoV-2 agents: in vitro and in silico studies” (BMC Chemistry, 2024)
“And” between values parts separate entries of the source, which are not always exact repeats. Identical values can stand only once. Like-named read-outs stand apart in the source and are kept apart here.

What was measured:
[1] = system: SARS-CoV-2 (hCoV-19/Egypt/NRC-03/2020); details: cited from earlier work
in vitro = details: African green monkey
[2] = system: SARS-CoV-2 (hCoV-19/Egypt/NRC-03/2020); test: Inhibitory concentration 50 (IC50) determination, crystal violet CPE assay in VERO-E6 cells; details: for IC50: 50% reduction of virus-induced CPE
VERO-E6 cells [3] = details: African green monkey
VERO-E6 cells [4] = details: cited from earlier work
[5] = standard reference drug, SARS-CoV-2
[6] = Severe acute respiratory syndrome coronavirus 2, Vero C1008, SARS-CoV-2 in VERO-E6 cells

| Structure (SMILES) | CC50 (in vitro) | IC50 ([2]; SARS-CoV-2 in VERO-E6 cells) | SI (CC50/IC50) [2] | IC50 [2, 6] | also measured |
| --- | --- | --- | --- | --- | --- |
| CCN(CC)CCCC(C)Nc1ccnc2cc(Cl)ccc12 (stereo not drawn) [Chloroquine] | – | – | – | – | IC50 [1, 5]: 24.9 µM |
| CCOC(=O)c1cnn2c(-c3ccccc3)nc(NCc3ccccc3)nc12 [Compound 1] | 463 µM | 2.4 µM | 190 and 192.8 | 2.45 µM | – |
| CCOC(=O)c1cnn2c(-c3ccc(Br)cc3)nc(NCc3ccccc3)nc12 [Compound 2] | 445 µM | 11.2 µM | 39.7 | 11.2 µM | – |
| CCOC(=O)c1cnn2c(-c3ccc(Cl)cc3)nc(NCc3ccccc3)nc12 [Compound 3] | 88.1 µM | 17.8 µM | 4.9 | 17.8 µM | CC50 (VERO-E6 cells [3]): 88 µM |
| CCOC(=O)c1cnn2c(-c3ccccc3)nc(N3CCCCC3)nc12 [Compound 4] | 366 µM | 61.8 µM | 5.9 | 61.9 µM | – |
| CCOC(=O)c1cnn2c(-c3ccc(Cl)cc3)nc(N3CCCCC3)nc12 [Compound 5] | 87.5 µM | – | 31.2 | 2.8 µM | – |
| CCOC(=O)c1cnn2c(-c3ccccc3)nc(NCCc3ccccc3)nc12 [Compound 6] | – | – | 2.5 | – | – |
| CCOC(=O)c1cnn2c(-c3ccc(Br)cc3)nc(N3CCCC3)nc12 [Compound 7] | 279 µM | – | 10.6 | 26.1 µM | – |
| O=C(NCc1ccccc1)c1cnn2c(-c3ccccc3)nc(NCc3ccccc3)nc12 [Compound 8] | 400 µM | 55 µM | 7.2 | 55.1 µM | – |
| O=C(NCCc1ccccc1)c1cnn2c(-c3ccccc3)nc(NCCc3ccccc3)nc12 [Compound 9] | 578 µM | 44.2 µM | 13.0 | 44.2 µM | – |
| O=C(NCCc1ccccc1)c1cnn2c(-c3ccc(Cl)cc3)nc(NCCc3ccccc3)nc12 [Compound 10] | 343 µM | 60.7 µM | 5.6 | 60.8 µM | – |
| NC(=O)c1nc(F)c[nH]c1=O [Favipiravir] | – | – | – | – | IC50 [1, 5]: 1380 µM; SI (CC50/IC50) ([1]; standard reference drug): 3.8; CC50 (VERO-E6 cells [4]): 5260 µM |
| CCN(CCO)CCCC(C)Nc1ccnc2cc(Cl)ccc12 (stereo not drawn) [Hydroxy-chloroquine, Hydroxychloroquine] | – | – | – | – | IC50 [1, 5]: 36.9 µM; SI (CC50/IC50) ([1]; standard reference drug): 9.7; CC50 (VERO-E6 cells [4]; standard reference drug): 356 µM |
| CCC(CC)COC(=O)[C@H](C)N[P@](=O)(OC[C@H]1O[C@@](C#N)(c2ccc3c(N)ncnn23)[C@H](O)[C@@H]1O)Oc1ccccc1 [Remdesivir] | – | – | – | – | IC50 ([1]; reference drug): 3.38 µM; CC50 (VERO-E6 cells [4]; reference drug): 58.1 µM |
